Results from patent US20240226228A1, “ANTIMICROBIAL PEPTOID HAVING IMPROVED SELECTIVITY AND ANTIMICROBIAL COMPOSITION COMPRISING SAME” (priority 2021, published 2024).
≈ marks a conversion by molar mass, not a printed value. Like-named read-outs stand apart in the source and are kept apart here. Values belong to the compound of their own block, whether it stands above or below them. Where a SMILES comes first, the peptide text is derived from it. Where no end group is shown, it is not given here. [ ]: non-standard residue; d: D form. Gly(N(CH2)2(3-indolyl)) = O=C(O)CNCCc1c[nH]c2ccccc12; Gly(N-CH2CH2-imidazol-4-yl) = O=C(O)CNCCc1c[nH]cn1; Nspe = C[C@H](NCC(=O)O)c1ccccc1; Nlys = NCCCCNCC(=O)O

Tests used:
red blood cells = assay: Hemolysis assay; assay type: cell-based, Sprague-Dawley mouse
Description: To confirm cytotoxicity by the hemolytic activity of each peptoid synthesized in Example 1, hemolysis analysis was performed. The used blood was collected from a 13-week-old male Sprague-Dawley […] in a tube containing 158 UPS sodium heparin for preventing coagulation, and centrifuged at 4° C. for 10 minutes at 1,000 rpm. Afterward, the plasma was carefully removed, red blood cells were washed with phosphate-buffered saline (PBS: a mixed solution of 35 mM phosphate-buffered solution/150 mM NaCl, pH 7.4) three times and centrifuged at 1,000 rpm for 10 minutes. A 10% (v/v) red blood cell solution diluted in PBS was dispensed at 150 μL into a 96-well plate (microtiter plate), a peptoid solution was added at 50 μL, and 1% Triton X-100 was added. Afterward, the red blood cells were incubated at 37° C. for 1 hour, and the incubated 96-well plate was centrifuged at 1,000 rpm for 15 minutes. A supernatant was obtained and transferred to a new 96-well plate at 150 μL, and absorbance was measured using a spectrophotometer at 540 nm. Percent hemolysis may be calculated by the following Equation 1, and the corresponding results are shown in Tables 11 to 13. % Hemolysis=(A−C)/(B−C)×100 [Equation 1] In Equation 1, A is the absorbance of the peptoid solution at 540 nm, B is the absorbance of the 0.1% Triton X-100 at 540 nm, and C is the absorbance of the PBS solution at 540 nm.

E. coli ATCC25922 = conditions: for antimicrobial activity (in words): E. coli and S. aureus, compared to Peptoid 1, parent peptoid or TFA salt as stated
Description: To measure the antimicrobial activity of the peptoids synthesized in Example 1, an E. coli ATCC25922 strain as gram-negative bacteria and an S. aureus KCTC25923 strain as gram-positive bacteris, were treated with the peptoids, followed by measuring the minimum inhibitory concentration (MIC). Peptoids 1 and 2 are antimicrobial peptoids known in the art, and used as controls for comparing antimicrobial activity with a novel peptoid.
Specifically, the S. aureus KCTC25923 or E. coli ATCC25922 strain was inoculated into a Mueller Hinton Broth (MHB2) liquid medium in which cations had been adjusted in the medium, cultured at 37° C. for 18 hours, subcultured, and then incubated for 4 hours. Afterward, for each bacterial strain, an optical density (OD, 0.001) was adjusted so that the bacterial count became 2×10^5 to 5×10^5 colony-forming units (CFU) per mL, which was then diluted with a MHB2 liquid medium containing 0.02% bovine serum albumin and 0.001% acetic acid, and dispensed at 100 μL into a 96-well microplate. Using sterile water, a peptoid stock 40 times stronger than a concentration to be tested was subjected to two-fold serial dilution and assessed at six different concentrations, and the maximum value of the peptoid concentrations was 25 μM. Subsequently, the plate was incubated at 37° C. for 24 hours. Afterward, optical density (OD) values at 600 nm were measured using a microplate reader (Bio-Rad).
Each MIC value was determined as the average value of a value obtained through three independent experiments.
Referring to Table 22, to measure the antimicrobial activity of the peptoids synthesized in Example 3, an MIC was measured by treating gram-negative bacteria, that is, the E. coli ATCC25922 strain, and gram-positive bacteria, that is, the S. aureus ATCC25923 strain, with the peptoids. Here, Peptoid 1 is a conventionally known antimicrobial peptoid, and Omiganan is a derivative of indolicidin, which is an antimicrobial peptide, under clinical development, and was used as a control for comparing antimicrobial activity with the novel peptoid.

Compound: C[C@@H](c1ccccc1)N(CC(N)=O)C(=O)CN(CCCCN)C(=O)CN(CCCCN)C(=O)CN(C(=O)CN(C(=O)CN(CCCCN)C(=O)CN(C(=O)CN(C(=O)CN(CCc1c[nH]cn1)C(=O)CN(CCc1c[nH]c2ccccc12)C(=O)CN(CCc1c[nH]c2ccccc12)C(=O)CNCCCCN)[C@@H](C)c1ccccc1)[C@@H](C)c1ccccc1)[C@@H](C)c1ccccc1)[C@@H](C)c1ccccc1 [Peptoid 73, H-NLys-NhTrp-NhTrp-NHis-Nspe-Nspe-NLys-Nspe-Nspe-NLys-NLys-Nspe-NH2] (H-[Nlys][Gly(N(CH2)2(3-indolyl))][Gly(N(CH2)2(3-indolyl))][Gly(N-CH2CH2-imidazol-4-yl)][Nspe][Nspe][Nlys][Nspe][Nspe][Nlys][Nlys][Nspe]-NH2)
cytotoxicity against red blood cells / hemolysis (in words) (red blood cells): improved in toxicity | antimicrobial activity (in words) (E. coli ATCC25922): retained antimicrobial activity

Compound: C[C@@H](c1ccccc1)N(CC(=O)N(CCCCN)CC(=O)N(CCc1c[nH]c2ccccc12)CC(=O)N(CCc1c[nH]c2ccccc12)CC(N)=O)C(=O)CN(CCCCN)C(=O)CN(CCCCN)C(=O)CN(C(=O)CN(C(=O)CN(CCCCN)C(=O)CN(C(=O)CN(C(=O)CNCCc1c[nH]cn1)[C@@H](C)c1ccccc1)[C@@H](C)c1ccccc1)[C@@H](C)c1ccccc1)[C@@H](C)c1ccccc1 [Peptoid 81, H-NHis-Nspe-Nspe-NLys-Nspe-Nspe-NLys-NLys-Nspe-NLys-NhTrp-NhTrp-NH2] (H-[Gly(N-CH2CH2-imidazol-4-yl)][Nspe][Nspe][Nlys][Nspe][Nspe][Nlys][Nlys][Nspe][Nlys][Gly(N(CH2)2(3-indolyl))][Gly(N(CH2)2(3-indolyl))]-NH2)
cytotoxicity against red blood cells / hemolysis (in words) (red blood cells): improved in toxicity | antimicrobial activity (in words) (E. coli ATCC25922): retained antimicrobial activity

Compound: C[C@@H](c1ccccc1)N(CC(N)=O)C(=O)CN(CCCCN)C(=O)CN(CCCCN)C(=O)CN(C(=O)CN(C(=O)CN(CCc1c[nH]cn1)C(=O)CN(C(=O)CN(C(=O)CN(CCCCN)C(=O)CN(CCc1c[nH]c2ccccc12)C(=O)CN(CCc1c[nH]c2ccccc12)C(=O)CNCCCCN)[C@@H](C)c1ccccc1)[C@@H](C)c1ccccc1)[C@@H](C)c1ccccc1)[C@@H](C)c1ccccc1 [Peptoid 74, H-NLys-NhTrp-NhTrp-NLys-Nspe-Nspe-NHis-Nspe-Nspe-NLys-NLys-Nspe-NH2] (H-[Nlys][Gly(N(CH2)2(3-indolyl))][Gly(N(CH2)2(3-indolyl))][Nlys][Nspe][Nspe][Gly(N-CH2CH2-imidazol-4-yl)][Nspe][Nspe][Nlys][Nlys][Nspe]-NH2)
cytotoxicity against red blood cells / hemolysis (in words) (red blood cells): improved in toxicity | antimicrobial activity (in words) (E. coli ATCC25922): retained antimicrobial activity

Compound: C[C@@H](c1ccccc1)N(CC(=O)N(CCCCN)CC(=O)N(CC(=O)N(CC(=O)N(CCCCN)CC(=O)N(CCc1c[nH]c2ccccc12)CC(=O)N(CCc1c[nH]c2ccccc12)CC(=O)N(CCCCN)CC(=O)N(CCc1c[nH]c2ccccc12)CC(=O)N(CCc1c[nH]c2ccccc12)CC(N)=O)[C@@H](C)c1ccccc1)[C@@H](C)c1ccccc1)C(=O)CN(C(=O)CNCCCCN)[C@@H](C)c1ccccc1 [Peptoid 19] (H-[Nlys][Nspe][Nspe][Nlys][Nspe][Nspe][Nlys][Gly(N(CH2)2(3-indolyl))][Gly(N(CH2)2(3-indolyl))][Nlys][Gly(N(CH2)2(3-indolyl))][Gly(N(CH2)2(3-indolyl))]-NH2)
Hmax (100 μM) (red blood cells): 101.5 ± 1.3% | HC10 (red blood cells; Tables 11-13, concentration that induces hemolysis in 10% red blood cells): 3.8 µM | HC50 (red blood cells; Tables 11-13, concentration that induces hemolysis in 50% red blood cells): 12.5 µM | MIC E. coli ATCC25922 (E. coli ATCC25922; Tables 11-13, 24 hours at 37° C., maximum concentration 25 μM): 12.5 µM (≈ 24.7 µg/mL)

Compound: C[C@@H](c1ccccc1)N(CC(=O)N(CCCCN)CC(=O)N(CCc1c[nH]c2ccccc12)CC(=O)N(CCc1c[nH]c2ccccc12)CC(N)=O)C(=O)CN(CCc1c[nH]cn1)C(=O)CN(CCCCN)C(=O)CN(C(=O)CN(C(=O)CN(CCCCN)C(=O)CN(C(=O)CN(C(=O)CNCCCCN)[C@@H](C)c1ccccc1)[C@@H](C)c1ccccc1)[C@@H](C)c1ccccc1)[C@@H](C)c1ccccc1 [Peptoid 78, H-NLys-Nspe-Nspe-NLys-Nspe-Nspe-NLys-NHis-Nspe-NLys-NhTrp-NhTrp-NH2] (H-[Nlys][Nspe][Nspe][Nlys][Nspe][Nspe][Nlys][Gly(N-CH2CH2-imidazol-4-yl)][Nspe][Nlys][Gly(N(CH2)2(3-indolyl))][Gly(N(CH2)2(3-indolyl))]-NH2)
cytotoxicity against red blood cells / hemolysis (in words) (red blood cells): improved in toxicity | antimicrobial activity (in words) (E. coli ATCC25922): retained antimicrobial activity

MIC E. coli ATCC25922 (E. coli ATCC25922; ATCC25922): 12.5~25 μM
Compound: ILRWPWWPWRRK-NH2 [Omiganan, reference compound]
Hmax (100 μM) (red blood cells): 0

Compound: C[C@@H](c1ccccc1)N(CC(=O)N(CCCCN)CC(=O)N(CCc1c[nH]c2ccccc12)CC(=O)N(CCc1c[nH]c2ccccc12)CC(N)=O)C(=O)CN(CCCCN)C(=O)CN(CCCCN)C(=O)CN(C(=O)CN(C(=O)CN(CCc1c[nH]cn1)C(=O)CN(C(=O)CN(C(=O)CNCCCCN)[C@@H](C)c1ccccc1)[C@@H](C)c1ccccc1)[C@@H](C)c1ccccc1)[C@@H](C)c1ccccc1 [Peptoid 80, H-NLys-Nspe-Nspe-NHis-Nspe-Nspe-NLys-NLys-Nspe-NLys-NhTrp-NhTrp-NH2] (H-[Nlys][Nspe][Nspe][Gly(N-CH2CH2-imidazol-4-yl)][Nspe][Nspe][Nlys][Nlys][Nspe][Nlys][Gly(N(CH2)2(3-indolyl))][Gly(N(CH2)2(3-indolyl))]-NH2)
cytotoxicity against red blood cells / hemolysis (in words) (red blood cells): improved toxicity | antimicrobial activity (in words) (E. coli ATCC25922): reduced antimicrobial activity

Compound: C[C@@H](c1ccccc1)N(CC(N)=O)C(=O)CN(CCCCN)C(=O)CN(CCCCN)C(=O)CN(C(=O)CN(C(=O)CN(CCCCN)C(=O)CN(C(=O)CN(C(=O)CN(CCCCN)C(=O)CN(CCc1c[nH]c2ccccc12)C(=O)CN(CCc1c[nH]c2ccccc12)C(=O)CNCCc1c[nH]cn1)[C@@H](C)c1ccccc1)[C@@H](C)c1ccccc1)[C@@H](C)c1ccccc1)[C@@H](C)c1ccccc1 [Peptoid 72, H-NHis-NhTrp-NhTrp-NLys-Nspe-Nspe-NLys-Nspe-Nspe-NLys-NLys-Nspe-NH2] (H-[Gly(N-CH2CH2-imidazol-4-yl)][Gly(N(CH2)2(3-indolyl))][Gly(N(CH2)2(3-indolyl))][Nlys][Nspe][Nspe][Nlys][Nspe][Nspe][Nlys][Nlys][Nspe]-NH2)
cytotoxicity against red blood cells / hemolysis (in words) (red blood cells): improved in toxicity | antimicrobial activity (in words) (E. coli ATCC25922): retained antimicrobial activity

Compound: C[C@@H](c1ccccc1)N(CC(=O)N(CCc1c[nH]cn1)CC(=O)N(CCc1c[nH]c2ccccc12)CC(=O)N(CCc1c[nH]c2ccccc12)CC(N)=O)C(=O)CN(CCCCN)C(=O)CN(CCCCN)C(=O)CN(C(=O)CN(C(=O)CN(CCCCN)C(=O)CN(C(=O)CN(C(=O)CNCCCCN)[C@@H](C)c1ccccc1)[C@@H](C)c1ccccc1)[C@@H](C)c1ccccc1)[C@@H](C)c1ccccc1 [Peptoid 77, H-NLys-Nspe-Nspe-NLys-Nspe-Nspe-NLys-NLys-Nspe-NHis-NhTrp-NhTrp-NH2] (H-[Nlys][Nspe][Nspe][Nlys][Nspe][Nspe][Nlys][Nlys][Nspe][Gly(N-CH2CH2-imidazol-4-yl)][Gly(N(CH2)2(3-indolyl))][Gly(N(CH2)2(3-indolyl))]-NH2)
cytotoxicity against red blood cells / hemolysis (in words) (red blood cells): improved toxicity | antimicrobial activity (in words) (E. coli ATCC25922): reduced antimicrobial activity
